Legend:
Details in all cases: 15 mM H2O2, 50 mM potassium phosphate pH 7, 1 min preincubation; read-out: 3-AT IC50
[1] = target: L. pyrrhocoris catalase (Leptomonas pyrrhocoris, UniProt A0A0M9FX30); assay: biochemical
Description: (§1) The enzymatic inhibition was measured with 15 mM H2O2 and 50 mM potassium phosphate, pH 7. The enzyme was incubated with different concentrations of inhibitors (KCN or 3-amino-1,2,4-triazole, hereafter denoted as 3-AT, both from MilliporeSigma) for one minute, then the substrate was added and the residual activity was measured at 240 nm for 2 min [56]. All measurements were performed in triplicate.

[2] = target: V. ingenoplastis catalase; assay type: biochemical, Vickermania ingenoplastis
Description: as §1

[3] = target: Blastocrithidia sp. catalase; assay type: biochemical
Description: as §1

Sequence of L. pyrrhocoris catalase (A0A0M9FX30 entry or part of it): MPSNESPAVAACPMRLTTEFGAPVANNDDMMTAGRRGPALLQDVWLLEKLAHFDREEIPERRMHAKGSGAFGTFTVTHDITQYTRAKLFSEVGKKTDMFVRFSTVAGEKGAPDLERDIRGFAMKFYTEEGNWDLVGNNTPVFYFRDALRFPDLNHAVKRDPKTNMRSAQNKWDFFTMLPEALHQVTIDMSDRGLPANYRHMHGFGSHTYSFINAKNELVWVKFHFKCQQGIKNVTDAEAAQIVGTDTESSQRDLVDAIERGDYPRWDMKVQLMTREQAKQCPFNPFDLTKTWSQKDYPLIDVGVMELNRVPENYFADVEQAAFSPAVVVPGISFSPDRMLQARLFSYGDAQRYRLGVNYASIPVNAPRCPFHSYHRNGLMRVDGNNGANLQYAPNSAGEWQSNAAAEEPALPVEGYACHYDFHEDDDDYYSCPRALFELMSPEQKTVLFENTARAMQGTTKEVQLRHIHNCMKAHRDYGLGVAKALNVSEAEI

## Nc1nc[nH]n1 [3-AT, 3-amino-1,2,4-triazole]
[1]
  IC50: 10.4 mM
[2]
  IC50: 11.4 mM
[3]
  IC50: 15.6 mM

— article PMC8773446, “Comparative Analysis of Three Trypanosomatid Catalases of Different Origin” (Antioxidants, 2021)
